For series [1], the system named is human Hep G2 cells (ATCC HB-8065). The series can be described thus: Cytotoxicity in Hep G2 cells (CellTiter-Glo). The series is classed as cell-based. A general note: Cellular ATP, detected with luciferase, serves as a proxy for viable cell number.
The target in another series is T1, SARS-CoV-2 PLpro (Severe acute respiratory syndrome coronavirus 2, UniProt P0DTD1).
T1 construct: containing 60 nM papain-like protease
The series can be described thus: biochemical.

The mark [2] stands for this setting: Hep G2 cells, 100 μM test article, 24-hour exposure.
Setting [3] is: 60 nM papain-like protease, 50 μM Z-RLRGG-AMC, pH 7.5, 37° C., read-out: SARS-CoV-2 PLpro IC50.

29 compounds from patent US20240383852A1, “ANTI-VIRAL COMPOUNDS” (INFEX Therapeutics Limited, priority 2021, published 2024) can be followed below.

Structures are written as SMILES. Structures can show the parent of a compound that is named as a salt. Where two headings read alike, the source gives them in different places.

Usually IC50 stands for the concentration that inhibits the measured activity by half. With `COc1cc(OC)c([C@@H](C)NC(=O)c2cc(N3CCN(C)CC3)ccc2C)cc1Br` [Example 202, N-[(1R)-1-(5-Bromo-2,4-dimethoxy-phenyl)ethyl]-2-methyl-5-(4-methylpiperazin-1-yl)benzamide], in series [1] (setting [2]), the “% Cell Viability” value is listed as 72.5%. The IC50 on SARS-CoV-2 PLpro (setting [3]) was under 5000 nM.

Turning to `Cc1ccc(N2CCCN(S(N)(=O)=O)CC2)cc1C(=O)N[C@H](C)c1cccc2ccccc12` [Example 178, 2-methyl-N-[(1R)-1-(1-naphthyl)ethyl]-5-(4-sulfamoyl-1,4-diazepan-1-yl)benzamide], the “% Cell Viability” value in series [1] (setting [2]) amounted to 77.2%. On SARS-CoV-2 PLpro (setting [3]), the IC50 is under 20000 nM.

As for `Cc1ccc(N2CCN(C)CC2)cc1C(=O)N[C@H](C)c1cc(-c2ccccc2)cs1` [Example 231, 2-Methyl-5-(4-methylpiperazin-1-yl)-N-[(1R)-1-(4-phenyl-2-thienyl)ethyl]benzamide], in series [1] (setting [2]), the “% Cell Viability” value stood at 1.6%. Moreover, at SARS-CoV-2 PLpro (setting [3]), the half-maximal inhibitory concentration (IC50) is under 2000 nM.

In the case of `Cc1ccc(N2CCN(C)CC2)cc1C(=O)N[C@H](C)c1cccc(-c2cncnc2)c1` [Example 59, 2-Methyl-5-(4-methylpiperazin-1-yl)-N-[(1R)-1-(3-pyrimidin-5-ylphenyl)ethyl]benzamide], the “% Cell Viability” value in series [1] (setting [2]) was 86.0%. The half-maximal inhibitory concentration (IC50) at SARS-CoV-2 PLpro (setting [3]) was under 10000 nM.

For `COc1cc(-c2cnn(C)c2)cc([C@@H](C)NC(=O)c2cc(C3CCNCC3)ccc2C)c1` [Example 303, N-[(1R)-1-[3-Methoxy-5-(1-methylpyrazol-4-yl)phenyl]ethyl]-2-methyl-5-(4-piperidyl)benzamide], the “% Cell Viability” value in series [1] (setting [2]) was found to be 73.2%. For the same compound, on SARS-CoV-2 PLpro (setting [3]), the half-maximal inhibitory concentration (IC50) is under 2000 nM.

`COc1cc(-c2ccccc2)cc([C@@H](C)NC(=O)c2cc(N3CCN(C)CC3)ccc2C)c1` [Example 234, N-[(1R)-1-(3-Methoxy-5-phenyl-phenyl)ethyl]-2-methyl-5-(4-methylpiperazin-1-yl)benzamide]: the “% Cell Viability” value in series [1] (setting [2]) turned out to be 0.9%. The concentration for half-maximal inhibition (IC50) on SARS-CoV-2 PLpro (setting [3]) was under 2000 nM.

For the compound `Cc1ccc(N2CCN(C)CC2)cc1C(=O)N[C@H](C)c1cccc(C(=O)NC[C@@H](O)CO)c1` [Example 308, N-[(1R)-1-[3-[[(2R)-2,3-Dihydroxypropyl]carbamoyl]phenyl]ethyl]-2-methyl-5-(4-methylpiperazin-1-yl)benzamide hydrochloride salt], the “% Cell Viability” value in series [1] (setting [2]) is listed as 126.8%. Besides, at SARS-CoV-2 PLpro (setting [3]), the IC50 is under 10000 nM.

Consider `COc1ccc([C@@H](C)NC(=O)c2cc(N3CCN(C)CC3)ccc2C)cc1Cl` [Example 188, N-[(1R)-1-(3-Chloro-4-methoxy-phenyl)ethyl]-2-methyl-5-(4-methylpiperazin-1-yl)benzamide], for which, in series [1] (setting [2]), the “% Cell Viability” value was 84.9%. Moreover, the IC50 on SARS-CoV-2 PLpro (setting [3]) was under 2000 nM.

Consider `Cc1ccc(N2CCN(C)CC2)cc1C(=O)N[C@H](C)c1cccc(-c2ccc(C(O)CO)cc2)c1` (stereo partly drawn) [Example 70, N-[(1R)-1-[3-[4-(1,2-Dihydroxyethyl)phenyl]phenyl]ethyl]-2-methyl-5-(4-methylpiperazin-1-yl)benzamide], for which the “% Cell Viability” value in series [1] (setting [2]) stood at 59.1%. Also, the IC50 on SARS-CoV-2 PLpro (setting [3]) is under 2000 nM.

As to `Cc1ccc(N2CCN(C)CC2)cc1C(=O)N[C@H](C)c1ccc(F)c(-c2ccccc2)c1` [Example 218, N-[(1R)-1-(4-Fluoro-3-phenyl-phenyl)ethyl]-2-methyl-5-(4-methylpiperazin-1-yl)benzamide], the “% Cell Viability” value in series [1] (setting [2]) is on record as 1.5%. The half-inhibitory concentration (IC50) on SARS-CoV-2 PLpro (setting [3]) is under 2000 nM.

As to `Cc1ccc(N2CCN(C)CC2)cc1C(=O)N[C@H](C)c1cccc2c1OCO2` [Example 33, N-[(1R)-1-(1,3-Benzodioxol-4-yl)ethyl]-2-methyl-5-(4-methylpiperazin-1-yl)benzamide hydrochloride salt], the “% Cell Viability” value in series [1] (setting [2]) is on record as 95.5%. Moreover, the IC50 on SARS-CoV-2 PLpro (setting [3]) is under 10000 nM.

For `COc1cc(-c2cn(C)nc2C)cc([C@@H](C)NC(=O)c2cc(N3C[C@H]4CC[C@@H](C3)N4)ccc2C)c1` [Example 270, 5-[(1S,5R)-3,8-Diazabicyclo[3.2.1]octan-3-yl]-N-[(1R)-1-[3-(1,3-dimethylpyrazol-4-yl)-5-methoxy-phenyl]ethyl]-2-methyl-benzamide], the “% Cell Viability” value in series [1] (human, 24 h, 100 μM) is 22.6%. The concentration for half-maximal inhibition (IC50) on SARS-CoV-2 PLpro is under 2000 nM.

Take `Cc1ccc(N2CCN(C)CC2)cc1C(=O)N[C@H](C)c1ccc(OC(C)C)c(-c2cnn(C)c2)c1` [Example 250, N-[(1R)-1-[4-isopropoxy-3-(1-methylpyrazol-4-yl)phenyl]ethyl]-2-methyl-5-(4-methylpiperazin-1-yl)benzamide]: the “% Cell Viability” value in series [1] (setting [2]) stood at 93.0%. The IC50 on SARS-CoV-2 PLpro (setting [3]) is under 2000 nM.

For `Cc1ccc(-c2ccnc(N3CCNCC3)c2)cc1C(=O)N[C@H](C)c1cccc2ccccc12` [Example 140, 2-Methyl-N-[(1R)-1-(1-naphthyl)ethyl]-5-(2-piperazin-1-yl-4-pyridyl)benzamide], the “% Cell Viability” value in series [1] (setting [2]) amounted to 0.8%. Besides, on SARS-CoV-2 PLpro (setting [3]), the half-maximal inhibitory concentration (IC50) was under 10000 nM.

Turning to `COc1ccc(Br)cc1[C@@H](C)NC(=O)c1cc(N2CCN(C)CC2)ccc1C` [Example 195, N-[(1R)-1-(5-Bromo-2-methoxy-phenyl)ethyl]-2-methyl-5-(4-methylpiperazin-1-yl)benzamide], the “% Cell Viability” value in series [1] (setting [2]) is 41.5%. Also, the IC50 on SARS-CoV-2 PLpro (setting [3]) was under 2000 nM.

`Cc1ccc(N2CCN(C)CC2)cc1C(=O)N[C@H](C)c1cc(O)cc(-c2cnn(C)c2)c1` [Example 275, N-[(1R)-1-[3-Hydroxy-5-(1-methylpyrazol-4-yl)phenyl]ethyl]-2-methyl-5-(4-methylpiperazin-1-yl)benzamide]: in series [1] (setting [2]), the “% Cell Viability” value was 80.7%. Further, the IC50 on SARS-CoV-2 PLpro (setting [3]) was under 2000 nM.

Turning to `Cc1ccc(N2CCN(C)CC2)cc1C(=O)N[C@H](C)c1cccc(-c2cccc(C(=O)NCCN(C)C)c2)c1` [Example 94, N-[(1R)-1-[3-[3-[2-(Dimethylamino)ethylcarbamoyl]phenyl]phenyl]ethyl]-2-methyl-5-(4-methylpiperazin-1-yl)benzamide], the “% Cell Viability” value in series [1] (setting [2]) is 17.3%. Further, the IC50 on SARS-CoV-2 PLpro (setting [3]) is under 2000 nM.

Consider `Cc1ccc(N2CCN(C3COC3)CC2)cc1C(=O)N[C@H](C)c1cccc2ccccc12` [Example 117, 2-Methyl-N-[(1R)-1-(1-naphthyl)ethyl]-5-[4-(oxetan-3-yl)piperazin-1-yl]benzamide], for which, in series [1] (setting [2]), the “% Cell Viability” value is listed as 61.1%. Also, on SARS-CoV-2 PLpro (setting [3]), the concentration for half-maximal inhibition (IC50) was under 5000 nM.

For the compound `Cc1ccc(N2CCN(C)CC2)cc1C(=O)N[C@H](C)c1ccc(F)c(Br)c1` [Example 187, N-[(1R)-1-(3-Bromo-4-fluoro-phenyl)ethyl]-2-methyl-5-(4-methylpiperazin-1-yl)benzamide], in series [1] (setting [2]), the “% Cell Viability” value is 44.0%. Also, the half-inhibitory concentration (IC50) on SARS-CoV-2 PLpro (setting [3]) is under 2000 nM.

On to `C[C@@H](NC(=O)c1cccc(N2CCN(CCC(=O)O)CC2)c1)c1cccc2ccccc12` [Example 161, 3-[4-[3-[[(1R)-1-(1-Naphthyl)ethyl]carbamoyl]phenyl]piperazin-1-yl]propanoic Acid], for which the “% Cell Viability” value in series [1] (setting [2]) is 97.9%. Besides, the half-maximal inhibitory concentration (IC50) at SARS-CoV-2 PLpro (setting [3]) was under 20000 nM.

As to `CCn1cc(-c2cc([C@@H](C)NC(=O)c3cc(N4CCN(C)CC4)ccc3C)ccc2OC)cn1` [Example 213, N-[(1R)-1-[3-(1-Ethylpyrazol-4-yl)-4-methoxy-phenyl]ethyl]-2-methyl-5-(4-methylpiperazin-1-yl)benzamide], the “% Cell Viability” value in series [1] (setting [2]) was found to be 67.2%. Moreover, on SARS-CoV-2 PLpro (setting [3]), the concentration for half-maximal inhibition (IC50) is under 2000 nM.

As for `Cc1ccc(N2CCOCC2)cc1C(=O)N[C@H](C)c1cccc2ccccc12` [Example 116, 2-Methyl-5-morpholino-N-[(1R)-1-(1-naphthyl)ethyl]benzamide], the “% Cell Viability” value in series [1] (setting [2]) is recorded as 66.6%. In addition, at SARS-CoV-2 PLpro (setting [3]), the IC50 is under 10000 nM.

For `Cc1ccc(N2C[C@H]3C[C@@H]2CN3C)cc1C(=O)N[C@H](C)c1cccc2ccccc12` [Example 121, 2-Methyl-5-[(1R,4R)-5-methyl-2,5-diazabicyclo[2.2.1]heptan-2-yl]-N-[(1R)-1-(naphthalen-1-yl)ethyl]benzamide], the “% Cell Viability” value in series [1] (setting [2]) is on record as 75.1%. For the same compound, the half-maximal inhibitory concentration (IC50) at SARS-CoV-2 PLpro (setting [3]) was under 2000 nM.

Consider `COc1cc([C@@H](C)NC(=O)c2cc(N3C[C@H]4C[C@@H]3CN4C)ccc2C)ccc1OCC1CC1` [Example 297, N-[(1R)-1-[4-(Cyclopropylmethoxy)-3-methoxy-phenyl]ethyl]-2-methyl-5-[(1R,4R)-5-methyl-2,5-diazabicyclo[2.2.1]heptan-2-yl]benzamide], for which the “% Cell Viability” value in series [1] (setting [2]) stood at 61.1%. The concentration for half-maximal inhibition (IC50) on SARS-CoV-2 PLpro (setting [3]) was under 2000 nM.

Consider `Cc1ccc(N2CCN(C)CC2)cc1C(=O)N[C@H](C)c1cccc(-c2cccc(CO)c2)c1` [Example 42, N-[(1R)-1-[3-[3-(Hydroxymethyl)phenyl]phenyl]ethyl]-2-methyl-5-(4-methylpiperazin-1-yl)benzamide], for which the “% Cell Viability” value in series [1] (setting [2]) is reported as 64.1%. Also, at SARS-CoV-2 PLpro (setting [3]), the half-inhibitory concentration (IC50) was under 2000 nM.

In the case of `Cc1ccc(N2CCN(C)CC2)cc1C(=O)N[C@H](C)c1cccc(-c2ccc(CO)cc2)c1` [Example 56, N-[(1R)-1-[3-[4-(Hydroxymethyl)phenyl]phenyl]ethyl]-2-methyl-5-(4-methylpiperazin-1-yl)benzamide], the “% Cell Viability” value in series [1] (setting [2]) was found to be 75.1%. Moreover, the half-inhibitory concentration (IC50) on SARS-CoV-2 PLpro (setting [3]) was under 2000 nM.

For the compound `COc1ccc([C@@H](C)NC(=O)c2cc(N3CCN(C)CC3)ccc2C)cc1OCCN` [Example 295, N-[(1R)-1-[3-(2-Aminoethoxy)-4-methoxy-phenyl]ethyl]-2-methyl-5-(4-methylpiperazin-1-yl)benzamide Dihydrochloride Salt], the “% Cell Viability” value in series [1] (setting [2]) was 107.9%. Also, the 50% inhibitory concentration (IC50) on SARS-CoV-2 PLpro (setting [3]) was under 10000 nM.

With `Cc1ccc(N2CCN(C)CC2)cc1C(=O)N[C@H](C)c1ccc(OC(F)(F)F)c(-c2cnn(C)c2)c1` [Example 222, 2-Methyl-5-(4-methylpiperazin-1-yl)-N-[(1R)-1-[3-(1-methylpyrazol-4-yl)-4-(trifluoromethoxy)phenyl]ethyl]benzamide], the “% Cell Viability” value in series [1] (setting [2]) worked out at 7.4%. Further, the IC50 at SARS-CoV-2 PLpro (setting [3]) is under 2000 nM.

As for `COc1cc(-c2cnn(C)c2)cc([C@@H](C)NC(=O)c2cc(N3CC4CN(C)CC4C3)ccc2C)c1` (stereo partly drawn) [Example 242, N-[(1R)-1-[3-Methoxy-5-(1-methylpyrazol-4-yl)phenyl]ethyl]-2-methyl-5-(2-methyl-1,3,3a,4,6,6a-hexahydropyrrolo[3,4-c]pyrrol-5-yl)benzamide], the “% Cell Viability” value in series [1] (setting [2]) was 62.4%. In addition, on SARS-CoV-2 PLpro (setting [3]), the IC50 is under 2000 nM.
